# Experiments:
# [1] = target: T1, KRS-AIMP2 (Homo sapiens, UniProt Q15046); experiment: Yeast two hybrid specificity test, LexA-KRS/B42-AIMP2 pair; assay type: cell-based; settings: compound at 50 μg/ml, DMSO control 1.3204
# T1 construct: expressed in transfected cells; host or cells: yeast (EGY/SH is stated for the KRS/LR pair)
# Procedure: (§1) On the compound of the present invention obtained by screening a library of compounds, the extent of inhibition on the interaction between KRS and laminin receptor (67LR) was determined by a yeast two hybrid assay, as described below. KRS, LR, AIMP2, AIMP3 and MRS were cloned at LexA vector (clontech) and B42 vector (clontech) each so as to produce required vectors. From among the vectors, LexA-KRS vector and B42-LR vector were co-transformed into yeast EGY/SH cells, and then the yeast cells were diluted to an absorbance (540 nm wavelength) of 0.2 in galactose medium not containing uracil (Ura), histidine (His), tryptophane (Trp) and leucine (Leu), and placed in an amount of 200 u in a 96 well plate. 1 μl of each compound at a concentration of 10 mg/ml was placed in each well, incubated for 6 days, and the absorbance was measured at 540 nm. […] The inhibitory specificity of the selected compound was tested by using two different interaction pairs such as LexA-KRS/B42-AIMP2 and LexA-MRS/B42-AIMP3. […]
# [2] = target: T2, MRS-AIMP3 (Homo sapiens, UniProt P56192); experiment: Yeast two hybrid specificity test, LexA-MRS/B42-AIMP3 pair; assay type: cell-based; settings: compound at 50 μg/ml, DMSO control 1.4732
# T2 construct: expressed in transfected cells; host or cells: yeast
# T2 sequence (P56192 1-900): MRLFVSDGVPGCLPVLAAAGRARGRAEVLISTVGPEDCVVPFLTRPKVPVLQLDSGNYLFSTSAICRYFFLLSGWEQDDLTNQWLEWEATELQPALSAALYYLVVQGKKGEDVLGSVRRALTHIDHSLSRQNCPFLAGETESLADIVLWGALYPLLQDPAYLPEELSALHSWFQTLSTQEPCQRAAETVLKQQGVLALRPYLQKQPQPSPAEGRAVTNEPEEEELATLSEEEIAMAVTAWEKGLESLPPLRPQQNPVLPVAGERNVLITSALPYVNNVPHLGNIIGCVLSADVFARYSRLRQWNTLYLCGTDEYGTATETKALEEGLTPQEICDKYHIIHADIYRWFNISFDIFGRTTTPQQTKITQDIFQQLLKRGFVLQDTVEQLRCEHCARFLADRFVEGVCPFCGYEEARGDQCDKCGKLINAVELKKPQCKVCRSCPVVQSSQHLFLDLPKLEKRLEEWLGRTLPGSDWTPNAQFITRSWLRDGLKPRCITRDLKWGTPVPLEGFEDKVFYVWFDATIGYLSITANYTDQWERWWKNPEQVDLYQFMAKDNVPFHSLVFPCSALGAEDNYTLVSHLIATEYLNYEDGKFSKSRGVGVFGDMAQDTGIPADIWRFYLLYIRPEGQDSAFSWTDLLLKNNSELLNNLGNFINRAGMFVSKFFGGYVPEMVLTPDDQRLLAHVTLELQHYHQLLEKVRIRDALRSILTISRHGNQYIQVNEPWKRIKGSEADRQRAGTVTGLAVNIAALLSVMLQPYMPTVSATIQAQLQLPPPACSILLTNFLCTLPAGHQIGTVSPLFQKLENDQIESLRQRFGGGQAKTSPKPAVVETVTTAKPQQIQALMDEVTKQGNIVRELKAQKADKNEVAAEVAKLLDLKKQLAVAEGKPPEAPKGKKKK
# Procedure: as §1
# T1 sequence (Q15046 whole entry): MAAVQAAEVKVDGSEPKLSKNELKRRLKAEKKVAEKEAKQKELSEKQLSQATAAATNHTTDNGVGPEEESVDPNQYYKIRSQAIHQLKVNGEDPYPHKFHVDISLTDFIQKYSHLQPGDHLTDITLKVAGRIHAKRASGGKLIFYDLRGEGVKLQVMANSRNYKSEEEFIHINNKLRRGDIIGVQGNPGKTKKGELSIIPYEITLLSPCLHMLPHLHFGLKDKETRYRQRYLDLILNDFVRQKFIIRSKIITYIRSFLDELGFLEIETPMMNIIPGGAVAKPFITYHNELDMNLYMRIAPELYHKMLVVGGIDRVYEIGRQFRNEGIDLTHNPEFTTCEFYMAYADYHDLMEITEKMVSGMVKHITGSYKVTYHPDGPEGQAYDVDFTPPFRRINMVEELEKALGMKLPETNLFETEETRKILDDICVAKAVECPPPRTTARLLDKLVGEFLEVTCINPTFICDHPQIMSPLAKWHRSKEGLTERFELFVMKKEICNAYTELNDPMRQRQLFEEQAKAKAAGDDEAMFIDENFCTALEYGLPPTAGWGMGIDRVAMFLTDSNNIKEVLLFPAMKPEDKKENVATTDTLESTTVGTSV
compound,measurement,setting,value
"CCC(C(=O)O)n1/c(=N/C(=O)c2ccc(C)cc2)sc2ccccc21 (centres unmarked) [Compound of formula 15, 2-[2-(4-Methyl-benzoylimino)-benzothiazol-3-yl]-butyric acid]","KRS-AIMP2 (yeast growth, OD level)",[1],0.9497
same,"MRS-AIMP3 (yeast growth, OD level)",[2],1.2443

# — US10130611B2, “Use of benzo-heterocycle derivatives for preventing and treating cancer or for inhibiting cancer metastasis” (MEDICINAL BIOCONVERGENCE RESEARCH CENTER, priority 2009, dated 2018)
